The target in this assay is T1, HCV protease (Hepatitis C virus genotype 1a, UniProt P27958).
T1 construct: purchased ProteinOne
Briefly: biochemical.

The structures appear in SMILES notation.

As usually defined, the IC50 is the concentration that inhibits the measured activity by half.

T1 sequence (P27958 1027-1208, other chains not shown): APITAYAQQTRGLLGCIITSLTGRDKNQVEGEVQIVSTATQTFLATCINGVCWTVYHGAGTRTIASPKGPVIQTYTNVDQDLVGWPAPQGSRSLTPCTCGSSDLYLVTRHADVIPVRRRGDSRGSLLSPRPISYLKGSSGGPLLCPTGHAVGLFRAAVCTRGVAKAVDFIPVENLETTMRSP
Protocol: The HCV protease assay kits were purchased from ProteinOne and experiments were performed according to the manual provided.
Assay solution (100 μL) was added to each well by a multichannel pipette (Eppendorf Research) and the fluorescence signals were recorded immediately.
Fluorescence signals were recorded at 90 min. The experiment was repeated in triplicate. IC50 was calculated via nonlinear regression using the software package GraphPad Prism 5.

`CC(C)(C)OC(=O)CC[C@@H](CC(=O)C(=O)NCc1ccc(Cl)cc1)NC(=O)C[C@@H](NC(=O)C[C@@H](NC(=O)C[C@@H](NC(=O)CCC(=O)O)C1CCCCC1)C1CCCCC1)C1CCCCC1` [I^3-M^5-M^5-M^5-T^4]: the IC50 was found to be 1 µM.

(Values after patent US20170088878A1, “METHOD FOR THE GENERATION OF CHEMICAL LIBRARIES” (ETH ZURICH, priority 2014, published 2017).)
